The values below come from article PMC12186263, “Molecular Basis for Peptide Nitration by a Novel Cytochrome P450 Enzyme in RiPP Biosynthesis” (ACS Catalysis, 2025).

Assay [1] deals with T1, TxtE (Streptomyces scabiei, UniProt C9ZDC6).
T1 sequence (C9ZDC6 1-406): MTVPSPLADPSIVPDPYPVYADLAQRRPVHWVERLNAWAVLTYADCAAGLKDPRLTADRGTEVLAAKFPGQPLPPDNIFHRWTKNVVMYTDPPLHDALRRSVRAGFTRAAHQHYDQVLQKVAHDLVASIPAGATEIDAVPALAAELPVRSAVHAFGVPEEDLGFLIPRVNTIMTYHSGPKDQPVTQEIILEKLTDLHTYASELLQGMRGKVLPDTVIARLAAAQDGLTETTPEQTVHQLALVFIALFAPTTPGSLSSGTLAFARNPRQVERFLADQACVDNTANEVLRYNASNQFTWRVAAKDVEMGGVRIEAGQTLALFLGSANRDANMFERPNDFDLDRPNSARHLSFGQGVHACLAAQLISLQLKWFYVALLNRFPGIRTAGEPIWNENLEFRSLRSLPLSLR
Nature of the assay: UV-vis of TxtE with Trp. The assay is classed as binding. The following applies: 2 μM TxtE, 0.5 mM Trp. The method, then:
(§1) Figure S1. Spectroscopic and ITC analysis of substrate binding in TxtE
(§2) (A) UV-vis spectra of 2 μM TxtE in the absence (black trace) and presence (red trace) of 0.5 mM
Trp; (B) ITC experiment of Trp titration to TxtE. […]
(§3) (1 picture or pasted object on this page, not shown here)

In assay [2] the target is T1, TxtE. Nature of the assay: Resonance Raman of TxtE with Trp. Format: binding. The following applies: 100 μM TxtE, 1 mM Trp. The method, then: All rR measurements were carried out in 180° backscattering geometry, with scattered light focused by a cylindrical lens (Nikon). The beam passed through a 405 nm notch filter (Thorlabs) for ferric samples or a 442 nm notch filter (Iridian) for ferrous-CO samples, before entering an iHR550 spectrometer (Horiba Scientific). The spectrometer was configured with a 120-μm entrance slit and a 1200 grooves/mm grating (estimated spectral resolution of 10 cm^–1) for ferric samples, or a 350-μm slit and 2400 grooves/mm grating (estimated spectral resolution of 10 cm^–1) for ferrous-CO samples, with detection by a liquid nitrogen-cooled Symphony CCD detector (Horiba Scientific). The accuracy of absolute frequencies is about ±1 cm^–1 based on duplicated measurements. Measurements were conducted at room temperature in 5 mm NMR tubes constantly spinning to prevent local heating and protein degradation. The acquisition times for ferric and CO-bound samples were set to 40 min and 2 h, respectively. UV–vis spectra were recorded before and after the measurements to ensure no photodegradation occurred. rR spectra were calibrated with fenchone (for all samples) and acetone-d 6 (for ferrous-CO samples in high-frequency regions) and processed using GRAMS/AI software (ThermoFisher).
as §1, §2
(§4) Trp; (B) ITC experiment of Trp titration to TxtE.
(§5) power observed with successive injections of 2 mM Trp to 50 μM TxtE after baseline correction.
(§6) consistent with a single binding site (red line). (C) Resonance Raman spectra of 100 μM TxtE in
(§7) the absence (top) and presence (bottom) of 1 mM Trp.
as §3

The target in assay [3] is T1, TxtE. The assay is described as follows: ITC of Trp titration to TxtE. The assay is classed as binding. The following applies: 2 mM Trp into 50 μM TxtE. The method, then:
as §1, §2, §4, §5, §6, §7, §3

A further assay has as its system ferrous RufO. The assay is described as follows: Stopped-flow transient kinetics of O2 and •NO binding to ferrous RufO. The note with it: 4 °C; for association rate constant k1: 3.3 μM ferrous RufO, pH 8.0, linear fit. The method, then:
5 Transient kinetics of ferrous RufO binding to O2 and ^•NO. Spectral changes following the rapid mixing of 3.3 μM ferrous RufO bound to MRYLH with (A) 18 μM O2 and (C) 70 μM ^•NO over 0.2 s. The black-to-red spectral transitions represent the formation of (A) a ferric-superoxo intermediate and (C) a ferrous-nitrosyl complex. Insets show the time-dependent absorbance changes at 438 nm (the most pronounced shift), fitted using single exponential equations to determine rate constants (red trace). Dependence of rate constant as a function of gas concentration on (B) O2 and (D) ^•NO binding to ferrous RufO alone (blue) and peptide-bound RufO (red). Second-order rate constants were determined through linear fitting. TEXT PRINTED IN THE PICTURE: (A) + O2: kobs = 74.3 s^-1 | (B) RufO alone: k1 = 3.55 μM^-1 s^-1 | (B) peptide-bound: k1 = 3.83 μM^-1 s^-1 | (C) + •NO: kobs = 107.4 s^-1 | (D) RufO alone: k1 = 4.12 μM^-1 s^-1 | (D) peptide-bound: k1 = 2.35 μM^-1 s^-1
Stopped-flow spectroscopic data were collected using an Applied Photophysics SX20 stopped-flow system equipped with a photodiode array detector. The system was maintained in an anaerobic chamber (O2 < 1 ppm) and all sample preparation was done anaerobically. Measurements were performed at 4 °C. All samples were prepared in a buffer containing 50 mM Tris-HCl and 100 mM NaCl, pH 8.0. RufO was prereduced with a minimal amount of sodium dithionite. The final mixed concentrations of RufO and MRYLH (where applicable) were 3.3 and 24 μM, respectively. Solutions of varying O2 concentrations were prepared by diluting air-saturated buffer with anaerobic buffer. The concentrations of O2 in the air-saturated buffer were measured with an Oxygraph+ oxygen electrode (Hansatech). To generate ^•NO-containing solutions, 0.5 mM DEA NONOate (≥98%, Cayman Chemical) was incubated in anaerobic buffer for 4 h to ensure complete ^•NO release. The ^•NO concentrations were quantified based on a hemoglobin assay, and further dilutions were made with anaerobic buffer immediately prior to mixing. Experimental data were analyzed by the ProK software package from Applied Photophysics. The second-order rate constants were obtained from linear fitting, with the resulting equations: y = 3.55x + 54.4 for the mixing of RufO with O2, y = 3.83x + 6.5 for the ES complex with O2, y = 4.12x −158.0 for RufO with ^•NO, and y = 2.35x – 58.9 for the ES complex with ^•NO.
Figure S9. Transient kinetics of ferrous RufO alone binding to O2 and •NO Spectral changes following the rapid mixing of 3.3 μM ferrous RufO with (A) 18 μM O 2 and […] superoxo intermediate and (B) a ferrous-nitrosyl complex. Insets show the time-dependent absorbance changes at 438 nm (the most pronounced shift), fitted using first-order exponential equations to determine rate constants (red trace).
as §3

The target of assay [4] is T2, RufO (Streptomyces atratus, UniProt A0A224AU14).
T2 construct: made in house
T2 sequence (A0A224AU14 1-394): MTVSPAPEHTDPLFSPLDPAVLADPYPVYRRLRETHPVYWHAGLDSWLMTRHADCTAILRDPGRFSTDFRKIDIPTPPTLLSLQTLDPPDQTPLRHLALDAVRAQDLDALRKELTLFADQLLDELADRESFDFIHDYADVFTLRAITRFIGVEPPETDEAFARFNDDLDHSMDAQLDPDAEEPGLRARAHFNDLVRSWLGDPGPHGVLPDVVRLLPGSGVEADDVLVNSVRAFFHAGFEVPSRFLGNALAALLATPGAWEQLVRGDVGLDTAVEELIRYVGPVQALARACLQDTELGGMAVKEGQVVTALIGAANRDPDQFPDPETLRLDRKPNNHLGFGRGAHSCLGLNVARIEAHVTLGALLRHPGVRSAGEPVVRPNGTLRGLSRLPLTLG
The assay is described as follows: Isothermal titration calorimetry, peptide into RufO. Format: binding. The following applies: ITC, 20 °C, 190 μM RufO, 50 mM Tris-HCl, 100 mM NaCl pH 7.5, one set of sites, control subtracted.
Description: ITC experiments were conducted at 20 °C using a MicroCal PEAQ-ITC instrument (Malvern Panalytical). RufO was prepared in a buffer containing 50 mM Tris-HCl and 100 mM NaCl at pH 7.5. The reference cell was filled with water. Each experiment involved 190 μM RufO in the sample cell, titrated with either 2.5 mM MRYLH or 2.8 mM Nle-RYLH in the syringe. Control experiments replaced the protein in the cell with buffer. The titration protocol included an initial 0.4 μL injection (excluded from analysis), followed by 19 injections of 2 μL at 2.5 min intervals. The cell was continuously stirred at 750 rpm. Data analysis was conducted using MicroCal PEAQ-ITC Analysis Software, with heats of dilution determined from the plateau region of the thermograms and subtracted from each integrated peak. All titrations are baseline corrected. The final integrated enthalpic changes were obtained by subtracting the controls from the protein-peptide titrations and fitted to a “one set of sites” binding model.

For assay [5], the target named is T2, RufO. The assay is described as follows: X-band cw EPR of RufO with peptide. Format: binding. The following applies: 100 μM RufO, 2 mM peptide, 10 K; double-integrated intensities. The method, then: 3 Spectroscopic characterization of the RufO heme center with and without peptide substrates. (A) X-band continuous wave EPR spectra of RufO (black), RufO with 2 mM MRYLH (red), and RufO with 2 mM Nle-RYLH (blue), measured at 10 K and 1 mW microwave power. The minor species marked by asterisks likely arise from conformational heterogeneity of the heme center or a freezing artifact. (B) rR spectra of RufO (top), RufO with 2 mM MRYLH (middle), and RufO with 2 mM Nle-RYLH (bottom). The spectra were collected using a 405 nm excitation laser at 5 mW. (C) rR spectra of CO adducts of ferrous RufO (top) and ferrous RufO with 2 mM Nle-RYLH (bottom). Spectra were collected using a 442 nm excitation line at 1 mW. (D) Backbonding correlations between v(Fe–C) and v(C–O) stretching frequencies for various CYPs in the absence (squares) and presence (circles) of ligands. […]
EPR samples were prepared by mixing 100 μM RufO in the same buffer with 5% glycerol and either 2 mM MRYLH or Nle-RYLH, followed by flash-freezing in 4 mm quartz EPR tubes. […] Each sample was measured at 9.35 GHz microwave frequency at 10 K using 1 mW microwave power. All spectra were recorded with four averaged scans using an ER4119HS resonator at a modulation frequency of 100 kHz and a modulation amplitude of 0.4 mT. The conversion rate of the low-spin species was determined by comparing the double-integrated intensities of the signals. […]

Assay [6] addresses T3, MRYLH pentapeptide (RufO substrate) (Streptomyces atratus).
T3 chain: MRYLH
Nature of the assay: ITC. In general terms: Isothermal titration calorimetry measures the heat released or taken up as one component is titrated into another.

Ends that are not written are not given here.

What is called Kd is the concentration at which binding is half-saturated. Lower therefore signals higher affinity. Turning to `N[C@@H](Cc1c[nH]c2ccccc12)C(=O)O` [Trp, L-tryptophan], the “Soret band position on substrate binding” value on TxtE [1] was 390 nm. Further, the “low-spin ν10 (1640 cm^–1), in words” value at TxtE [2] is on record as “disappearance”. The “ν4 on Trp binding” value at TxtE [2] (initially 1374 cm^–1) is 1373 cm^–1. Moreover, at TxtE [2] (initially 1504 cm^–1, six- to five-coordinate high-spin conversion), the “ν3 on Trp binding” value was determined as 1488 cm^–1. For the same molecule, the “ν2 on Trp binding” value on TxtE [2] (initially 1588 cm^–1) is 1570 cm^–1. Moreover, at TxtE [3], the “ΔS, in words” value is recorded as “negative ΔS”. On TxtE [3] (single binding site), this molecule registered an equilibrium dissociation constant (Kd) of 16 µM. This molecule showed a ΔH at TxtE [3] (single binding site, exothermic) of -14.6 kcal/mol.

nitric oxide [•NO] came in with a kobs in the assay with ferrous RufO (MRYLH-bound ferrous RufO 3.3 μM, 70 μM •NO, 438 nm, single exponential) of 107.4 s⁻¹. For the same molecule, the “association rate constant k1” value is recorded as 2.35 μM^–1 s^–1 with ferrous RufO (MRYLH-bound, 24 μM MRYLH) and 4.12 μM^–1 s^–1 in the assay on ferrous RufO (RufO alone). Also, the “•NO concentration below which nitrosyl complex not detectable” value was below 50 µM in the assay on ferrous RufO (RufO alone) and below 70 µM in the assay with ferrous RufO (peptide-bound RufO).

MRYLH [MRYLH] came in with a Kd at RufO [4] of 780 ± 300 nM. The “conversion of original low-spin species to new low-spin species” value on RufO [5] is reported as 84%.

B1: RufO (protein)
chain: MTVSPAPEHTDPLFSPLDPAVLADPYPVYRRLRETHPVYWHAGLDSWLMTRHADCTAILRDPGRFSTDFRKIDIPTPPTLLSLQTLDPPDQTPLRHLALDAVRAQDLDALRKELTLFADQLLDELADRESFDFIHDYADVFTLRAITRFIGVEPPETDEAFARFNDDLDHSMDAQLDPDAEEPGLRARAHFNDLVRSWLGDPGPHGVLPDVVRLLPGSGVEADDVLVNSVRAFFHAGFEVPSRFLGNALAALLATPGAWEQLVRGDVGLDTAVEELIRYVGPVQALARACLQDTELGGMAVKEGQVVTALIGAANRDPDQFPDPETLRLDRKPNNHLGFGRGAHSCLGLNVARIEAHVTLGALLRHPGVRSAGEPVVRPNGTLRGLSRLPLTLG
Regarding B1, binding in assay [6] was put at a Kd of 780 nM.
